Experimental data published in patent US20240409585A1, “MACROCYCLIC IMMUNOMODULATORS” (priority 2021, published 2024).
Bridge positions count the residues as written; N and C are the ends. Square brackets hold non-standard residues; d marks the D form. Peptide text beside a SMILES is read from it. * marks the point of attachment. ξ: configuration not given here. Phe(4-COOH) = N[C@@H](Cc1ccc(C(=O)O)cc1)C(=O)O; Bip = N[C@@H](Cc1ccc(-c2ccccc2)cc1)C(=O)O; 4Pal = N[C@@H](Cc1ccncc1)C(=O)O; Cha = N[C@@H](CC1CCCCC1)C(=O)O; Cit = NC(=O)NCCC[C@H](N)C(=O)O; Ile(3ξ) = CCC(C)[C@H](N)C(=O)O; Carboxymethyl = O=C(O)C*; NMeA = CN[C@@H](C)C(=O)O; Dab = NCC[C@H](N)C(=O)O

Molecular target: T1, PE-labeled human PD-L1-Ig binding to Jurkat cell line over-expressing human PD-1 (Jurkat-PD-1) (Homo sapiens, UniProt Q15116)
T1 construct: expressed in transfected cells; host or cells: Jurkat
T1 sequence (Q15116 25-288): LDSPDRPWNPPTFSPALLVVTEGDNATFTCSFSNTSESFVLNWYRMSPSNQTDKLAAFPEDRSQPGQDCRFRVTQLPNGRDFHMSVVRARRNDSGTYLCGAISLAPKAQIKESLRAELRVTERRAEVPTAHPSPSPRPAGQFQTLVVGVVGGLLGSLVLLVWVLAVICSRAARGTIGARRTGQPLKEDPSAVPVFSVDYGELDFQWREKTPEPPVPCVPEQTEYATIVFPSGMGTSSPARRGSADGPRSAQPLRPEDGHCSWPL
Assay: Jurkat-PD-1 Cell Binding High-Content Screening Assay (CBA): Method 1
Settings: Jurkat-hPD-1 cells, PE-labeled PD-L1-Ig 20 nM final; read-out: Jurkat HPDL1 PD1 IC50 (uM) (Method 1)

SMILES	IC50
CC(C)C[C@@H]1NC(=O)[C@H](CCN)NC(=O)[C@@H](CC(C)C)NC(=O)[C@H](C)N(C)C(=O)[C@H](CCCNC(N)=O)NC(=O)[C@H](Cc2ccc(-c3ccccc3)cc2)NC(=O)[C@H](C(C)C)NC(=O)[C@H](Cc2c[nH]c3ccccc23)NC(=O)[C@H](CC(=O)O)NC(=O)[C@H](Cc2ccc(O)cc2)NC(=O)[C@H](CC(N)=O)NC(=O)CSC[C@@H](C(=O)N[C@@H](C)C(N)=O)NC(=O)[C@H](CO)NC(=O)[C@H](C(C)C)NC1=O [Compound 1237] ({CH2CO}-NYDWV[Bip][Cit][NMeA][dL][Dab]LVSCA-NH2; thioether N-14)	0.03 µM
CC(C)C[C@H]1NC(=O)[C@H](C)N(C)C(=O)[C@H](CCCNC(=N)N)NC(=O)[C@H](Cc2ccc(-c3ccccc3)cc2)NC(=O)[C@H](C(C)C)NC(=O)[C@H](Cc2c[nH]c3ccccc23)NC(=O)[C@H](CC(=O)O)NC(=O)[C@H](Cc2ccc(O)cc2)NC(=O)[C@H](Cc2ccccc2)NC(=O)CSC[C@@H](C(=O)N[C@@H](C)C(N)=O)NC(=O)[C@H]([C@@H](C)O)NC(=O)[C@H](C(C)C)NC(=O)[C@H](CC2CCCCC2)NC(=O)[C@H](CCCNC(=N)N)NC1=O [Compound 1115] ({CH2CO}-FYDWV[Bip]R[NMeA][dL]R[Cha]VTCA-NH2; thioether N-14)	0.05 µM
CC(C)C[C@@H]1NC(=O)[C@H](Cc2c[nH]c3ccccc23)NC(=O)[C@H](CC(=O)O)NC(=O)[C@H](Cc2ccc(O)cc2)NC(=O)[C@H](Cc2ccccc2)NC(=O)CSC[C@@H](C(=O)N[C@@H](C)C(N)=O)NC(=O)[C@H](CO)NC(=O)[C@H](CCN)NC(=O)[C@H](CC(C)C)NC(=O)[C@H](CC(N)=O)NC(=O)[C@@H](CC(C)C)NC(=O)[C@H](C)N(C)C(=O)[C@H](C(C)C)NC(=O)[C@H](Cc2ccc(-c3ccccc3)cc2)NC1=O [Compound 1538] ({CH2CO}-FYDWL[Bip]V[NMeA][dL]NL[Dab]SCA-NH2; thioether N-14)	0.1 µM
CC(C)C[C@@H]1NC(=O)[C@H](Cc2c[nH]c3ccccc23)NC(=O)[C@H](CC(=O)O)NC(=O)[C@H](Cc2ccncc2)NC(=O)[C@H](Cc2ccc(OCC(=O)O)cc2)NC(=O)CSC[C@@H](C(=O)N[C@@H](C)C(N)=O)NC(=O)[C@H](CO)NC(=O)[C@H](C(C)C)NC(=O)[C@H](CC(C)C)NC(=O)[C@H](CC(N)=O)NC(=O)[C@@H](C)NC(=O)[C@H](C)N(C)C(=O)[C@H](C(C)C)NC(=O)[C@H](Cc2ccc(-c3ccccc3)cc2)NC1=O [Compound 1564] ({CH2CO}-Y(Carboxymethyl)[4Pal]DWL[Bip]V[NMeA][dA]NLVSCA-NH2; thioether N-14)	0.01 µM
CC(C)C[C@@H]1NC(=O)[C@H](Cc2c[nH]c3ccccc23)NC(=O)[C@H](CC(=O)O)NC(=O)[C@H](Cc2ccc(O)cc2)NC(=O)[C@H](Cc2ccccc2)NC(=O)CSC[C@@H](C(=O)NCC(N)=O)NC(=O)[C@H]([C@@H](C)O)NC(=O)[C@H](C(C)C)NC(=O)[C@H](CC(C)C)NC(=O)[C@H](CCN)NC(=O)[C@@H](C)NC(=O)[C@H](C)N(C)C(=O)[C@H](C(C)C)NC(=O)[C@H](Cc2ccc(-c3ccccc3)cc2)NC1=O [Compound 1477] ({CH2CO}-FYDWL[Bip]V[NMeA][dA][Dab]LVTCG-NH2; thioether N-14)	0.02 µM
CCC(C)[C@@H]1NC(=O)[C@H](Cc2ccc(-c3ccccc3)cc2)NC(=O)[C@H](CC(C)C)NC(=O)[C@H](Cc2c[nH]c3ccccc23)NC(=O)[C@H](CC(=O)O)NC(=O)[C@H](Cc2ccc(C(=O)O)cc2)NC(=O)[C@H](Cc2ccc(OCC(=O)O)cc2)NC(=O)CSC[C@@H](C(=O)N[C@@H](CO)C(N)=O)NC(=O)[C@H](CCC(N)=O)NC(=O)[C@H](C(C)C)NC(=O)[C@H](CC2CCCCC2)NC(=O)[C@H](CCN)NC(=O)[C@@H](CC(C)C)NC(=O)[C@H](C)N(C)C1=O (stereo partly drawn) [Compound 1931] ({CH2CO}-Y(Carboxymethyl)[Phe(4-COOH)]DWL[Bip][Ile(3ξ)][NMeA][dL][Dab][Cha]VQCS-NH2; thioether N-14)	0.02 µM
